The values that follow come from US20060013804A1, “Modulation of stem cell differentiation by modulation of caspase-3 activity” (Ottawa Health Research Institute, priority 2002, published 2006).

Molecules are shown by their SMILES.

The test system of the test is C2C12 myoblasts. The test can be described thus: C2C12 myoblast differentiation in low serum media with caspase inhibitors (MF20 staining, immunoblot of myogenic markers). It is filed as cell-based, mouse. The settings on record: 20 μM inhibitor; for myotube formation: C2C12, low serum media, MF20 staining, up to 4 days; for myotube formation / myoblast fusion (mononucleated / fused cells): vs DMSO; for myoblast fusion (mononucleated / fused cells) / expression of MEF2C / accumulation of myogenin: C2C12, low serum; for myoblast fusion (mononucleated / fused cells): 4 days; for expression of MEF2C / accumulation of myogenin: Western blot; for expression of MEF2C: vs control; for accumulation of myogenin: vs control myoblasts. As to the method:
Myoblast culture. C2C12 cell (mouse skeletal muscle myoblast) cultures were grown and maintained in DMEM containing 10% FBS with 50 units/ml penicillin and 50 μg/ml streptomycin (Gibco). Differentiation was induced by incubating cultures in DMEM containing only a low serum concentration (2% horse serum). Caspase activity was measured using a Caspase-3 and Caspase-8 Fluorometric Assay Kit (Pharmingen). […] Control cells were treated with an equivalent amount of vehicle (DMSO). Primary myoblast cells were derived from skeletal muscles of the hind- and fore-limbs from 1-2 day old C57BL/6 wild-type, caspase-3 heterozygous and caspase-3 null mice (Frasch, S. C., et al., (1998) J. Biol. Chem. 273, 8389-8397; Kuida, K., et al., (1996) Nature 384, 368-372) (n=5 for each genotype) as described (Cregan, S. P. et al., (1999) J. Neuro. 19, 7860-7869.). To induce differentiation, primary myoblast cultures were incubated in DMEM containing 5% horse serum.
Protein isolation, immunoblot analyses and immunocytochemistry. Cells from C2C12 and primary myoblast cultures were washed with ice-cold PBS and lysed on ice for 45 minutes in modified-RIPA buffer containing 20 mM NaF, 5 mM Na3VO4 and 10 μg/ml each of aprotinin, leupeptin, pepstatin and PMSF. Total protein was measured using the BCA protein assay (Pierce). Immunoblot analyses were performed as described (Creasy, C. L., & Chernoff, J. (1995) J. Biol. Chem. 270, 21695-21700) using antibodies for MST1, MKK6, p38γ, and p38α (Upstate), p38 and MEF2C (Cell Signaling Technologies), myogenin F5D and myosin heavy chain MF20 mAb (Developmental Hybridoma Bank), and active caspase-3 (Biovision).
C2C12 myoblasts were fixed and stained with anti-MF20 as previously described (Cregan, et al., (1999) J. Neuro. 19, 7860-7869). Primary myoblast cultures were fixed in 4% paraformaldehyde, rinsed three times in PBS containing 0.01% Triton X-100 and stained as above. For both C2C12 and primary myoblast cultures, nuclei were detected by incubating cells for 10 min with 4,6-diamidino-2-phenylindole diluted 1:10000 in PBS.
Cells were fixed after 0, 2 and 4 days of differentiation and stained with the myosin heavy chain antibody MF20. […] In contrast, differentiation was more evident in cells that were incubated with caspase-8 inhibitor, z-LETD.fmk (FIG. 2B bottom panel, C).
Background: In western blotting, separated proteins are transferred to a membrane and probed.

Consider `COC(=O)CC[C@H](NC(=O)[C@H](CC(=O)OC)NC(=O)OCc1ccccc1)C(=O)N[C@H](C(=O)N[C@@H](CC(=O)OC)C(=O)CF)C(C)C` [z-DEVD.fmk], for which the myotube formation result is recorded as “impaired formation of myotubes”; the “myoblast fusion (mononucleated / fused cells)” value is “remained mononucleated and unfused after 4 days”; the “expression of MEF2C” value was “virtually absent”; the accumulation of myogenin entry is “delayed and attenuated accumulation”. Also, for the setting “listed as Z-DEVD.fmk”, the myotube formation result is on record as “drastically attenuated”; the “myoblast fusion (mononucleated / fused cells)” value was “lack fusion capacity”; the accumulation of myogenin entry was “delayed and is in lower abundance”; the “expression of MEF2C” value is given as “low levels of MEF2C relative to control cells”.
